In ChEMBL document CHEMBL1201862, “PubChem BioAssay data set” (2004):
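Cultured in 96-well plates, cells were exposed to test compound for 48 hours across five concentrations. GI50 marks 50% less growth.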 Calls of active or inactive are those of the source. Cut-off read from the data, not from the text of the source: active = GI50 up to about 1.1 µM and inactive = higher.

Assays:
Experiment in all cases: NCI anticancer screen, dose series, 48 h
A498 = test system: A498
A549 = test system: A549
ACHN = test system: ACHN
CAKI-1 = test system: CAKI-1
CCRF-CEM = test system: CCRF-CEM
COLO 205 = test system: COLO 205
DU-145 = test system: DU-145
EKVX = test system: EKVX
HCC 2998 = test system: HCC 2998
HCT-116 = test system: HCT-116
HCT-15 = test system: HCT-15
HL-60 = test system: HL-60
HOP-62 = test system: HOP-62
HOP-92 = test system: HOP-92
HT-29 = test system: HT-29
Hs-578T = test system: Hs-578T
IGROV-1 = test system: IGROV-1
K562 = test system: K562
KM12 = test system: KM12
LOX IMVI = test system: LOX IMVI
M14 = test system: M14
MDA-MB-231 = test system: MDA-MB-231
MDA-MB-435 = test system: MDA-MB-435
MDA-N = test system: MDA-N
Malme-3M = test system: Malme-3M
NCI-H226 = test system: NCI-H226
NCI-H23 = test system: NCI-H23
NCI-H460 = test system: NCI-H460
NCI-H522 = test system: NCI-H522
NCI/ADR-RES = test system: NCI/ADR-RES
OVCAR-3 = test system: OVCAR-3
OVCAR-4 = test system: OVCAR-4
OVCAR-5 = test system: OVCAR-5
OVCAR-8 = test system: OVCAR-8
PC-3 = test system: PC-3
RXF 393 = test system: RXF 393
SF-268 = test system: SF-268
SF-295 = test system: SF-295
SF-539 = test system: SF-539
SK-MEL-28 = test system: SK-MEL-28
SK-MEL-2 = test system: SK-MEL-2
SK-MEL-5 = test system: SK-MEL-5
SK-OV-3 = test system: SK-OV-3
SN12C = test system: SN12C
SNB-19 = test system: SNB-19
SNB-75 = test system: SNB-75
SR = test system: SR
SW-620 = test system: SW-620
T47D = test system: T47D
TK-10 = test system: TK-10
U-251 = test system: U-251
UACC-62 = test system: UACC-62
UO-31 = test system: UO-31
786-0 = test system: 786-0
MCF7 = test system: MCF7
MOLT-4 = test system: MOLT-4
RPMI-8226 = test system: RPMI-8226
UACC-257 = test system: UACC-257

For `Cn1c(=O)ccc2c(=O)c3ccccc3oc21`, the GI50 (A498) was > 100 µM (inactive), the GI50 (A549) was > 100 µM (inactive) and the GI50 (ACHN) was > 100 µM (inactive). For the same compound, the GI50 (CAKI-1) was > 100 µM (inactive), the GI50 (CCRF-CEM) was > 100 µM (inactive) and the GI50 (COLO 205) was > 100 µM (inactive). The GI50 (DU-145) was > 100 µM (inactive), the GI50 (EKVX) was > 100 µM (inactive) and the GI50 (HCC 2998) was > 100 µM (inactive). For the same compound, the GI50 (HCT-116) was > 100 µM (inactive), the GI50 (HCT-15) was > 100 µM and the GI50 (HL-60) was > 100 µM (inactive). The GI50 (HOP-62) was > 100 µM (inactive), the GI50 (HOP-92) was 67.6 µM (inactive) and the GI50 (HT-29) was > 100 µM (inactive). The GI50 (Hs-578T) was > 100 µM (inactive), the GI50 (IGROV-1) was > 100 µM (inactive) and the GI50 (K562) was > 100 µM (inactive). For the same compound, the GI50 (KM12) was > 100 µM (inactive), the GI50 (LOX IMVI) was > 100 µM (inactive) and the GI50 (M14) was > 100 µM (inactive). The GI50 (MDA-MB-231) was > 100 µM (inactive), the GI50 (MDA-MB-435) was > 100 µM (inactive) and the GI50 (MDA-N) was > 100 µM (inactive). The GI50 (Malme-3M) was > 100 µM (inactive), the GI50 (NCI-H226) was > 100 µM (inactive) and the GI50 (NCI-H23) was > 100 µM (inactive). The GI50 (NCI-H460) was > 100 µM (inactive), the GI50 (NCI-H522) was > 100 µM (inactive) and the GI50 (NCI/ADR-RES) was > 100 µM (inactive). The GI50 (OVCAR-3) was > 100 µM (inactive), the GI50 (OVCAR-4) was > 100 µM (inactive) and the GI50 (OVCAR-5) was > 100 µM (inactive). The GI50 (OVCAR-8) was > 100 µM (inactive), the GI50 (PC-3) was > 100 µM (inactive) and the GI50 (RXF 393) was 64.9 µM (inactive). The GI50 (SF-268) was > 100 µM (inactive), the GI50 (SF-295) was > 100 µM (inactive) and the GI50 (SF-539) was > 100 µM (inactive). For the same compound, the GI50 (SK-MEL-28) was > 100 µM (inactive), the GI50 (SK-MEL-2) was > 100 µM (inactive) and the GI50 (SK-MEL-5) was > 100 µM (inactive). The GI50 (SK-OV-3) was > 100 µM (inactive), the GI50 (SN12C) was > 100 µM (inactive) and the GI50 (SNB-19) was > 100 µM (inactive). For the same compound, the GI50 (SNB-75) was 0.029 µM (active), the GI50 (SR) was > 100 µM (inactive) and the GI50 (SW-620) was > 100 µM (inactive). The GI50 (T47D) was > 100 µM (inactive), the GI50 (TK-10) was > 100 µM (inactive) and the GI50 (U-251) was > 100 µM (inactive). For the same compound, the GI50 (UACC-62) was > 100 µM (inactive) and the GI50 (UO-31) was 4.68 µM (inactive).

`COc1ccc(/C=C2\N=C3NC(=O)C(N4CCOCC4)=C(N)N3C2=O)cc1` was tested, and the GI50 (786-0) was 53 µM (inactive), the GI50 (A498) was > 100 µM (inactive) and the GI50 (A549) was > 100 µM (inactive). For the same compound, the GI50 (ACHN) was 75.9 µM (inactive), the GI50 (CAKI-1) was > 100 µM (inactive) and the GI50 (CCRF-CEM) was > 100 µM (inactive). The GI50 (COLO 205) was > 100 µM (inactive), the GI50 (DU-145) was > 100 µM (inactive) and the GI50 (EKVX) was 69.7 µM (inactive). For the same compound, the GI50 (HCC 2998) was > 100 µM (inactive), the GI50 (HCT-116) was > 100 µM (inactive) and the GI50 (HCT-15) was > 100 µM. For the same compound, the GI50 (HL-60) was 48.9 µM (inactive), the GI50 (HOP-92) was > 100 µM (inactive) and the GI50 (HT-29) was > 100 µM (inactive). The GI50 (Hs-578T) was 35.7 µM (inactive), the GI50 (IGROV-1) was 85.5 µM (inactive) and the GI50 (K562) was 6.7 µM (inactive). For the same compound, the GI50 (KM12) was > 100 µM (inactive), the GI50 (LOX IMVI) was > 100 µM (inactive) and the GI50 (M14) was > 100 µM (inactive). For the same compound, the GI50 (MCF7) was > 100 µM (inactive), the GI50 (MDA-MB-231) was > 100 µM (inactive) and the GI50 (MDA-MB-435) was > 100 µM (inactive). For the same compound, the GI50 (MDA-N) was > 100 µM (inactive), the GI50 (MOLT-4) was > 100 µM (inactive) and the GI50 (Malme-3M) was > 100 µM (inactive). For the same compound, the GI50 (NCI-H226) was > 100 µM (inactive), the GI50 (NCI-H23) was > 100 µM (inactive) and the GI50 (NCI-H522) was 75.3 µM (inactive). The GI50 (NCI/ADR-RES) was > 100 µM (inactive), the GI50 (OVCAR-4) was 31.8 µM (inactive) and the GI50 (OVCAR-5) was > 100 µM (inactive). The GI50 (OVCAR-8) was > 100 µM (inactive), the GI50 (RPMI-8226) was > 100 µM (inactive) and the GI50 (RXF 393) was 46.7 µM (inactive). The GI50 (SF-268) was 76.2 µM (inactive), the GI50 (SF-295) was 59.7 µM (inactive) and the GI50 (SF-539) was > 100 µM (inactive). For the same compound, the GI50 (SK-MEL-28) was > 100 µM (inactive), the GI50 (SK-MEL-5) was > 100 µM (inactive) and the GI50 (SK-OV-3) was > 100 µM (inactive). The GI50 (SN12C) was > 100 µM (inactive), the GI50 (SNB-19) was 96.8 µM (inactive) and the GI50 (SNB-75) was 24.8 µM (inactive). For the same compound, the GI50 (SR) was 29.9 µM (inactive), the GI50 (SW-620) was > 100 µM (inactive) and the GI50 (T47D) was > 100 µM (inactive). For the same compound, the GI50 (TK-10) was 53.7 µM (inactive), the GI50 (U-251) was 53.7 µM (inactive) and the GI50 (UACC-257) was > 100 µM (inactive). The GI50 (UO-31) was > 100 µM (inactive).

`CCN(CC)C(=S)SS(=O)(=O)c1ccc(N)cc1` was tested, and the GI50 (A498) was > 40.2 µM (inactive), the GI50 (A549) was 14.5 µM (inactive) and the GI50 (ACHN) was > 78.3 µM (inactive). The GI50 (CAKI-1) was > 46.9 µM (inactive), the GI50 (EKVX) was > 100 µM (inactive) and the GI50 (HCC 2998) was > 29.1 µM (inactive). The GI50 (HOP-62) was > 58.2 µM (inactive), the GI50 (HOP-92) was > 23.1 µM (inactive) and the GI50 (HT-29) was > 100 µM (inactive). For the same compound, the GI50 (Hs-578T) was > 91 µM (inactive), the GI50 (IGROV-1) was 4.91 µM (inactive) and the GI50 (K562) was 39.5 µM (inactive). The GI50 (KM12) was 29.6 µM (inactive), the GI50 (M14) was 70 µM (inactive) and the GI50 (MCF7) was 7.29 µM (inactive). The GI50 (MDA-N) was 70.5 µM (inactive), the GI50 (MOLT-4) was 2.3 µM (inactive) and the GI50 (NCI-H23) was > 100 µM (inactive). For the same compound, the GI50 (NCI-H460) was 87.1 µM (inactive), the GI50 (NCI-H522) was 3.68 µM (inactive) and the GI50 (OVCAR-5) was > 100 µM (inactive). For the same compound, the GI50 (RPMI-8226) was 22.8 µM (inactive), the GI50 (RXF 393) was 31.8 µM (inactive) and the GI50 (SK-MEL-2) was > 100 µM (inactive). For the same compound, the GI50 (SK-MEL-5) was 15.2 µM (inactive), the GI50 (SK-OV-3) was > 100 µM (inactive) and the GI50 (SNB-19) was > 100 µM (inactive). The GI50 (SR) was 3.41 µM (inactive), the GI50 (T47D) was 76.7 µM (inactive) and the GI50 (UACC-62) was 39.4 µM (inactive). The GI50 (UO-31) was > 89.5 µM (inactive).
